Data on 1 compound can be found in patent US11643421B2, “Process for the preparation of tricyclic PI3K inhibitor compounds and methods for using the same for the treatment of cancer” (priority 2015, dated 2023).

A short description of the data set: MALDI imaging of brain distribution, U87 orthotopic model. Type of data set: in vivo, female nude mice. The following applies: re-analysis of previously obtained images (Salphati et al. 2014). How it is done: Mice were euthanized at 1 and 6 hours post-dose via exsanguination by perfusion under anesthesia. Brains were excised, flash frozen in liquid N2 and stored in a −80° C. freezer until analyzed. Fresh frozen tissue sections were obtained on a cryomicrotome (Leica CM3050S, Buffalo Grove, Ill.) at 12 μm thickness and thaw-mounted onto indium tin oxide coated glass slides (Bruker Daltonics, Billerica, Mass.). Tissue sections were an analyzed by imaging MALDI MS, providing signal intensities (and not absolute quantitation), followed by cresyl violet staining for histological interrogation.
For MALDI MAS analysis, a 40 mg/mL solution of 2,5-dihydroxybenzoic acid (Sigma-Aldrich, St. Louis, Mo.) was prepared in methanol:water (70:30 v/v). […] Matrix solution was homogenously spray-coated onto the tissue using a HTX TM-Sprayer (HTX technologies. Chapel Hill, N.C.). Matrix-coated tissue sections were transferred to the MALDI mass spectrometer (SolariX 7T FT-ICR, Bruker Daltonics, Bremen, Germany) for imaging analysis. […] Laser intensity and number of shots were optimized for sensitivity of the parent drug (1200 shots) with ion detection collected over the mass range of m/z 150-3000.
Following completion of the imaging experiments, matrix coaling was removed by rinsing the glass slide in 100% methanol for 30 seconds or until the entire matrix was visibly removed. […] Microscope images were obtained on an Olympus BX51 (Tokyo, Japan) at 10× magnification and stitched using MicroSuite Analytical v3.0 software (Olympus, Tokyo, Japan). Subsequently, stained images were co-registered to the optical images in FlexImaging for visualization and annotation of tumor and non-tumor regions for the drug images.
To assess drug distribution, imaging MALDI MS data from U87 and GS2 tumor models were co-registered to the cresyl violet stained microscope images in FlexImaging Regions of interest (ROIs) that were selected based on the anatomical features defined in the histological image including tumor and non-tumor regions. Drug intensity for each pixel within the defined ROI was extracted and exported. […] Histogram plots were created in GraphPad Prism 5 to visualize the distribution of pixel intensity frequencies.

On to `CS(=O)(=O)N1CCN(Cc2cc3nc(-c4cccc5[nH]ncc45)nc(N4CCOCC4)c3s2)CC1` [pictilisib, reference compound], for which the “distribution of signal intensities in the U87 tumor (MALDI)” value is reported as “concentrated in the low intensity bins”.
